The values below come from US20160158251A1, “COMPOSITION FOR PREVENTING OR TREATING MUSCULAR ATROPHY OR PROMOTING MUSCULAR REGENERATION IN SUBJECT COMPRISING SULFONAMIDE COMPOUND AND USE THEREOF” (Samsung Electronics Co., Ltd., priority 2014, published 2016).

Assay [1] deals with Human skeletal muscle satellite (HSkMS) cells. Description: Proliferation of human skeletal muscle satellite cells (cell count by hemocytometer, serum and growth factor starvation). It counts as cell-based. The following applies: 24 hours, in comparison with serum starvation (FIG. 1). Here is the method:
Human skeletal muscle satellite (HSkMS) cells were prepared to identify whether proliferation of skeletal muscle satellite cells is promoted by sulfonamide compounds.
The seeded HSkMS cells were cultured at 37° C. in a 5% CO2 incubator for 24 hours. Then, 0.1 μM, 1 μM, and 10 μM of each of sulfadiazine (Sigma-Aldrich), sulfamethoxazole (Sigma-Aldrich), sulfadoxine (Sigma-Aldrich), and sulfaguanidine (Sigma-Aldrich), as sulfonamide compounds, were added to the HSkMS cells, and the cells were incubated at 37° C. in a 5% CO2 incubator for 24 hours. After the incubation, the numbers of HSkMS cells were calculated using a hemocytometer.

Assay [2] relates to Atrogin-1. Description: Atrogin-1 mRNA expression in differentiated C2C12 cells treated with dexamethasone (real time PCR). It counts as cell-based, mouse. The following applies: sulfadiazine (1, 10 or 100 μM) 24 hours, then 2 μM dexamethasone 24 hours, vs. dexamethasone only (FIG. 2A). Here is the method: (§1) C2C12 cell lines (mouse gastrocnemius muscle, ATCC® CRL-1772™) were seeded in a 10% FBS/DMEM and incubated at 37° C. in a 5% CO2 incubator. When the cells were 70% confluent, the culture medium was replaced with 2% FBS/DMEM and the cells were cultured for 4 days to completely induce differentiation into muscle cells. C2C12 cell lines are mouse myoblast cell lines obtained by continuous culture of myoblast cells cultured from gastrocnemius muscle of C3H mice.
(§2) When C2C12 cells were completely differentiated into muscle cells, the culture medium was removed therefrom, and 4 ml of a fresh culture medium including 1 μM, 10 μM, or 100 μM of sulfadiazine (Sigma Aldrich) was added thereto, and then, the cells were cultured at 37° C. in a 5% CO2 incubator for 24 hours. […]
(§3) A Trizol reagent (Invitrogen) was added to the collected cells, and total RNA was separated therefrom according to manufacturer's protocols. […] Amounts of mRNA of Atrogin-1 and MuRF-1 were quantified using a real time PCR device (MyiQPCR instrument, BioRad) that is a device measuring SYBR Green. […]
(§4) Values obtained via amplification were normalized to GAPDH gene expression, and relative expression levels of mRNA of Atrogin-1 and MURF-1 were quantified. The quantified relative expression levels (arbitrary unit (AU)) of mRNA of Atrogin-1 and MURF-1 are illustrated in FIGS. 2A and 2B, respectively (*: p<0.05 vs. dexamethasone)
In general terms: Quantitative PCR measures a nucleic acid by following its amplification.

In assay [3] the test system is MuRF-1. Briefly: MuRF-1 mRNA expression in differentiated C2C12 cells treated with dexamethasone (real time PCR). The assay is classed as cell-based, mouse. The settings on record: sulfadiazine (1, 10 or 100 μM) 24 hours, then 2 μM dexamethasone 24 hours, vs. dexamethasone only (FIG. 2B). Here is the method:
as §1, §2, §3, §4

Take `Cc1cc(NS(=O)(=O)c2ccc(N)cc2)no1` [sulfamethoxazole]: in assay [1] (10 μM), the “proliferation of the HSkMS cells” value is listed as “promoted in all groups, in comparison with serum starvation, except for the groups”.
In the case of `Nc1ccc(S(=O)(=O)Nc2ncccn2)cc1` [sulfadiazine], the “proliferation of the HSkMS cells” value in assay [1] (1 μM) is reported as “promoted in all groups, in comparison with serum starvation, except for the groups”; in assay [1] (10 μM), “promoted in all groups, in comparison with serum starvation, except for the groups”. In assay [2], the “expression of mRNA of Atrogin-1” value is “decreased”. Besides, the “expression of mRNA of MuRF1” value in assay [3] was “decreased”.
`NC(N)=NS(=O)(=O)c1ccc(N)cc1` [sulfaguanidine]: in assay [1] (10 μM), the “proliferation of the HSkMS cells” value is reported as “promoted in all groups, in comparison with serum starvation, except for the groups”.
